In EP0818443B1, “Mercaptoketones and mercaptoalcohols, a process for their preparation and their use as inhibitors of matrix metalloproteinases” (American Cyanamid Company, priority 1996, dated 1998):

Experiments:
[1] = biological target: MMP stromelysin (Homo sapiens, UniProt P08254); conditions: WO 9407481; cited from earlier work
[2] = biological target: T1, human recombinant fibroblast collagenase (Homo sapiens, UniProt P03956); assay: Collagenase inhibition in vitro (fluorogenic peptide substrate); type: biochemical
T1 construct: human recombinant fibroblast collagenase (truncated, mw 18,828, WAR, Radnor)
T1 sequence (P03956 100-269 limits assumed): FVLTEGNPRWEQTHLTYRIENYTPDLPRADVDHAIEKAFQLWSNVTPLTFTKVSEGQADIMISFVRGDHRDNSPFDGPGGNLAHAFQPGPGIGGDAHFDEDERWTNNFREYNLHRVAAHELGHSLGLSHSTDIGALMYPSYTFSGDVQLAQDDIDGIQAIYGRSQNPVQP
Experimental: The assay is based on the cleavage of a peptide substrate ((Dnp-Pro-Cha-Gly-Cys(Me)-His-Ala-Lys(NMa)-NH2), Peptide International, Inc.) by collagenase releasing the fluorescent NMa group which is quantitated on the fluorometer. Dnp quenches the NMa fluorescence in the intact substrate. The assay is run in HCBC assay buffer (50mM HEPES, pH 7.0, 5mM Ca^+2, 0.02% Brij, 0.5% cysteine), with human recombinant fibroblast collagenase (truncated, mw 18,828, WAR, Radnor). Substrate is dissolved in methanol and stored frozen in 1mM aliquots. Collagenase is stored frozen in buffer in 25 µM aliquots. For the assay, substrate is dissolved in HCBC buffer to a final concentration of 10 µM and collagenase to a final concentration of 5nM. Compounds are dissolved in methanol, DMSO, or HCBC. The methanol and DMSO are diluted in HCBC to <1%. Compounds are added to the 96 well plate containing enzyme and the reaction is started by the addition of substrate.
The reaction is read (excitation 340 nm, emission 444nm) for 10 minutes and the increase in fluorescence over time is plotted as a linear line. The slope of the line is calculated and represents the reaction rate.
The linearity of the reaction rate is confirmed (r^2>0.85). The mean of the control rate is calculated and compared for statistical significance (p<0.05) with drug-treated rates using Dunnett's multiple comparison test. Dose-response relationships can be generated using multiple doses of drug and IC50 values with 95% CI are estimated using linear regression (IPRED, HTB) (Bickett, D. M. et al., A High Throughput Fluorogenic Substrate For Interstitial Collagenase (MMP-1) and Gelatinase (MMP-9), Anal. Biochem. 212, 58-64 (1993)).

[3] = biological target: T2, human recombinant stromelysin (Homo sapiens, UniProt P08254); assay: Stromelysin inhibition in vitro (thiopeptide substrate, DTNB); type: biochemical
T2 construct: human recombinant stromelysin (truncated, Affymax); purchased Affymax
Experimental: The assay is based on the cleavage of the thiopeptide substrate ((Ac-Pro-Leu-Gly(2-mercapto-4-methylpentanoyl)Leu-Gly-OEt), Bachem Bioscience) by the enzyme stromelysin, releasing the substrate product which forms a colorimetric reaction with DTNB ((5,5'-dithiobis(2-nitrobenzoic acid)). The thiopeptide substrate is made up as a 20mM stock in 100% DMSO and stored frozen while the DTNB stock is dissolved in 100% DMSO and stored as a 100mM stock at room temperature. Both the substrate and DTNB are diluted to 1mM with assay buffer (50mM HEPES, pH 7.0, 5 mM CaCl2) before use. The stock of human recombinant stromelysin (truncated, Affymax) is diluted with assay buffer to a final concentration of 12.5 nM in the reaction.
The enzyme, DTNB, and substrate (10µM final concentration) with/without inhibitor (total reaction volume of 200µL) is added to a 96 well plate and then the increase in color is monitored spectrophotometrically for 5 minutes at 405 nanometers (nm) on a plate reader. The increase in OD405 is plotted and the slope of the line is calculated which represents the reaction rate.
The mean of the control rate is calculated and compared for statistical significance (p<0.05) with drug-treated rates using Dunnett's multiple comparison test. Dose-response relationships can be generated using multiple doses of drug and IC50 values with 95% Cl are estimated using linear regression (IPRED, HTB) (Weingarten and Feder, Spectrophometric Assay For Vertebrate Collagenase, Anal. Biochem 147, 437-440 (1985)).

[4] = biological target: gelatinase (Homo sapiens, UniProt P14780); assay: In vivo MMP inhibition (enzyme in implanted dialysis tubing); design: species or system rat (Sprague-Dawley) or mouse (CD-1)
Experimental: A 2 cm piece of dialysis tubing (molecular weight cut-off 12-14,000, 10 mm flat width) containing matrix metalloproteinase enzyme (stromelysin, collagenase or gelatinase in 0.5 mL of buffer) is implanted either ip or sc (in the back) of a rat (Sprague-Dawley, 150-200g) or mouse (CD-1, 25-50g) under anesthesia. Drugs are administered PO, IP, SC or IV through a canula in the jugular vein. Drugs are administered in a dose volume of 0.1 to 0.25 mL/animal. Contents of the dialysis tubing is collected and enzyme activity assayed.
Enzyme reaction rates for each dialysis tube are calculated. Tubes from at least 3 different animals are used to calculate the mean± sem. Statistical significance (p<0.05) of vehicle-treated animals versus drug-treated animals is determined by analysis of variance. (Agents and Actions 21: 331, 1987)

[5] = biological target: T3, human neutrophil gelatinase B (Homo sapiens, UniProt P14780); assay: Gelatinase inhibition in vitro (thiopeptide substrate, DTNB); type: biochemical
T3 construct: human neutrophil gelatinase B; from tissue; host or cells: human neutrophils
Experimental: The increase in OD405 is plotted and the slope of the line is calculated which represents the reaction rate.
The mean of the control rate is calculated and compared for statistical significance (p<0.05) with drug-treated rates using Dunnett's multiple comparison test.

T2 sequence (P08254 100-272 limits assumed): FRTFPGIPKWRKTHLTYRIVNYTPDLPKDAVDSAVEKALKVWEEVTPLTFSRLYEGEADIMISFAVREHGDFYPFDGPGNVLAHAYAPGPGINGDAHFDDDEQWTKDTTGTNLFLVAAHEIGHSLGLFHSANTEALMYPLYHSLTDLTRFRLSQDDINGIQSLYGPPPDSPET
Sequence of gelatinase (P14780 94-707): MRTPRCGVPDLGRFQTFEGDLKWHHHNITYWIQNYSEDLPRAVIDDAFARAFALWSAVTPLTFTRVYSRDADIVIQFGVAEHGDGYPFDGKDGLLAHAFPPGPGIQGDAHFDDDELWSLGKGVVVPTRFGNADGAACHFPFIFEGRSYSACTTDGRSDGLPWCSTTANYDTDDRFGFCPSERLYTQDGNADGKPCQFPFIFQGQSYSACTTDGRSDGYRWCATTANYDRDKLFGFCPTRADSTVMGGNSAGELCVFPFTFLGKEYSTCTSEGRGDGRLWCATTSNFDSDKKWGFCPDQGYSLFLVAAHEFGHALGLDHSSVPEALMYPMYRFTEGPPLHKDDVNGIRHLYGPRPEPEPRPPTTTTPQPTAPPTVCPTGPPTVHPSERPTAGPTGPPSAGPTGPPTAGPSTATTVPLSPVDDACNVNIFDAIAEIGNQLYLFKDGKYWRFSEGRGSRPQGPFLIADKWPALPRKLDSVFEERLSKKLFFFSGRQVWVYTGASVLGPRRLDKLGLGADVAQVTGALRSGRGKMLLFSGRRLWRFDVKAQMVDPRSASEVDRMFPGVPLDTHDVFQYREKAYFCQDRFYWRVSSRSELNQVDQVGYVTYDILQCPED
T3 sequence (P14780 94-707): as above
Sequence of MMP stromelysin (P08254 100-477): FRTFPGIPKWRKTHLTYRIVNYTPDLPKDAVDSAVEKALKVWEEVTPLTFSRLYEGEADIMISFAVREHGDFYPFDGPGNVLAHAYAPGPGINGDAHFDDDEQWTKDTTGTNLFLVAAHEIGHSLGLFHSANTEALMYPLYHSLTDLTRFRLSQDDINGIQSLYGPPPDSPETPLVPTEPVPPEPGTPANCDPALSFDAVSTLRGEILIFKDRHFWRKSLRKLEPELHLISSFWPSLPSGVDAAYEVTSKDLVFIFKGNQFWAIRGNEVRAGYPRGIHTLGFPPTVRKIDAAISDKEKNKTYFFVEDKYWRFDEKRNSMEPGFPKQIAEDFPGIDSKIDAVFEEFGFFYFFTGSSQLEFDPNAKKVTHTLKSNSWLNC

Compound | in vivo % gelatinase inhibition ([4]; 50mpk (milligrams/kilogram)) | IC50 [2] | other results
CC(C)C[C@H](NC(=O)[C@@H](CS)CCc1ccccc1)C(=O)Nc1ccccc1 | – | – | inhibitor of the MMP stromelysin [1]: moderate
CNC(=O)[C@@H](NC(=O)[C@H](CC(C)C)C[C@@H](O)CSC(c1ccccc1)(c1ccccc1)c1ccccc1)C(C)(C)C [Example 35, (2R,4R)-4-Hydroxy-2-isobutyl-5-tritylsulfanylpentanoic acid ((1S)-2,2-dimethyl-1-methylcarbamoylpropyl)amide] | 0.44/50mpk % | – | inhibition at 1 µM ([2]; @1µM): 72%; inhibition at 1 µM [3]: 38%
CCCCCCC[C@H](C[C@H](O)CS)C(=O)N[C@H](C(=O)NC)C(C)(C)C [Example 38, (2R)-2-((2S)-2-Hydroxy-3-mercaptopropyl)nonanoic acid ((1S)-2,2-dimethyl-1-methylcarbamoylpropyl)amide] | 22.2/50mpk % | 30 nM | –
CNC(=O)[C@@H](NC(=O)[C@H](CC(C)C)C[C@@H](O)CS)C(C)(C)C [Example 39, (2R,4R)-4-Hydroxy-2-isobutyl-5-mercaptopentanoic acid ((1S)-2,2-dimethyl-1-methylcarbamoylpropyl)amide] | 20.4/50 mpk % | 228 nM | IC50 [5]: 106 nM
CNC(=O)[C@@H](NC(=O)[C@H](CC(C)C)C[C@H](O)CS)C(C)(C)C [Example 40, (2R,4S)-4-Hydroxy-2-isobutyl-5-mercaptopentanoic acid ((1S)-2,2-dimethyl-1-methylcarbamoylpropyl)amide] | 84.8/50mpk % | 41 nM | IC50 [5]: 19 nM
CCCCCCC[C@H](CC(=O)CS)C(=O)N[C@H](C(=O)NC)C(C)(C)C [Example 43, (2R)-2-(3-Mercapto-2-oxopropyl)nonanoic acid ((1S)-2,2-dimethyl-1-methylcarbamoylpropyl)amide] | 0.73/50mpk* % | 30 nM | IC50 [3]: 28 nM
CNC(=O)[C@@H](NC(=O)[C@@H](CC(=O)CS)CC(C)C)C(C)(C)C [Example 44, (2R)-2-Isobutyl-5-mercapto-4-oxopentanoic acid ((1S)-2,2-dimethyl-1-methylcarbamoylpropyl)amide] | – | 38 nM | inhibition at 1 µM [3]: 58%; in vivo % gelatinase inhibition ([4]; 60mpk (milligrams/kilogram)): 4.8/60mpk %
